The NIST ThermoML archive (doi:10.1021/je060271a)
Where “and” joins values, the source holds several entries; their conditions need not be identical. Equal values may be shown once.

Settings: 283.15 K, Liquid, Vibrating tube method

CCCCCC(=O)OCC(COC(=O)CCCCC)(COC(=O)CCCCC)COC(=O)CCCCC [pentaerythritol tetrahexanoate]
Settings	mass density
6771 kPa	1008.1 kg/m3
6771.2 kPa	1008 kg/m3
6771.4 kPa	1008.1 kg/m3 and 1008 kg/m3
6771.6 kPa	1008.1 kg/m3
6771.7 kPa	1008.1 kg/m3
6771.9 kPa	1008 kg/m3
6772.1 kPa	1008.1 kg/m3
6772.3 kPa	1008.1 kg/m3
6772.4 kPa	1008 kg/m3 and 1008.1 kg/m3 and 1008.2 kg/m3
6772.6 kPa	1008.1 kg/m3 and 1008 kg/m3
6772.8 kPa	1008.1 kg/m3 and 1007.9 kg/m3
6772.9 kPa	1008.1 kg/m3
6773.1 kPa	1008 kg/m3 and 1008.2 kg/m3
6773.3 kPa	1008 kg/m3 and 1008.2 kg/m3
6773.5 kPa	1008 kg/m3 and 1008.1 kg/m3
6773.6 kPa	1008.1 kg/m3 and 1008.2 kg/m3 and 1008 kg/m3
6773.7 kPa	1008 kg/m3
6773.8 kPa	1008.1 kg/m3 and 1008 kg/m3
6774.1 kPa	1008.1 kg/m3
6774.2 kPa	1008.1 kg/m3
6774.3 kPa	1008.1 kg/m3
6774.5 kPa	1008.2 kg/m3 and 1008 kg/m3 and 1008.1 kg/m3
6774.7 kPa	1008.1 kg/m3 and 1008.2 kg/m3 and 1008 kg/m3
6774.8 kPa	1007.9 kg/m3 and 1008.1 kg/m3 and 1008 kg/m3
6775 kPa	1008.1 kg/m3 and 1007.9 kg/m3
6775.1 kPa	1008.2 kg/m3 and 1008.1 kg/m3
6775.2 kPa	1008.1 kg/m3 and 1008.2 kg/m3
6775.4 kPa	1008.2 kg/m3 and 1008 kg/m3
6776.1 kPa	1008.1 kg/m3
6776.2 kPa	1008.1 kg/m3
6776.6 kPa	1008.2 kg/m3 and 1008.1 kg/m3
6776.8 kPa	1008.1 kg/m3 and 1008.2 kg/m3 and 1008 kg/m3
6776.9 kPa	1008.2 kg/m3 and 1008.1 kg/m3
6777.1 kPa	1008.1 kg/m3
6777.3 kPa	1008.1 kg/m3
6777.5 kPa	1008.1 kg/m3 and 1008 kg/m3
6777.6 kPa	1008.1 kg/m3 and 1008 kg/m3
6777.8 kPa	1008.1 kg/m3 and 1008.2 kg/m3 and 1008 kg/m3
6778 kPa	1008.2 kg/m3
6778.1 kPa	1008 kg/m3 and 1008.1 kg/m3 and 1008.2 kg/m3
6778.3 kPa	1008.1 kg/m3 and 1008.2 kg/m3
6778.5 kPa	1008.1 kg/m3 and 1008 kg/m3 and 1007.9 kg/m3
6778.7 kPa	1008 kg/m3 and 1008.1 kg/m3
6779 kPa	1008.1 kg/m3
6779.2 kPa	1008 kg/m3 and 1008.1 kg/m3
6779.3 kPa	1008.2 kg/m3
6779.5 kPa	1008 kg/m3 and 1008.1 kg/m3
6779.7 kPa	1008.1 kg/m3 and 1008.2 kg/m3
6779.8 kPa	1008.2 kg/m3
6779.9 kPa	1008 kg/m3 and 1008.1 kg/m3
6780 kPa	1008.1 kg/m3 [middle of 4 runs]
6780.2 kPa	1008.1 kg/m3 and 1008 kg/m3
6780.3 kPa	1008 kg/m3
6780.4 kPa	1008 kg/m3 and 1008.2 kg/m3 and 1008.1 kg/m3
6780.5 kPa	1008.1 kg/m3 and 1008 kg/m3
6780.6 kPa	1008.1 kg/m3
6780.7 kPa	1008 kg/m3 and 1008.2 kg/m3 and 1008.1 kg/m3
6780.8 kPa	1008.2 kg/m3 and 1008.1 kg/m3
6780.9 kPa	1008.1 kg/m3
6781 kPa	1008.1 kg/m3 and 1008 kg/m3 and 1008.2 kg/m3
6781.1 kPa	1008.1 kg/m3
6781.2 kPa	1008.1 kg/m3
6781.3 kPa	1008.1 kg/m3
6781.4 kPa	1008.1 kg/m3
6781.5 kPa	1008.1 kg/m3
6781.7 kPa	1007.9 kg/m3
6781.9 kPa	1008.1 kg/m3 and 1008 kg/m3
6782 kPa	1008.2 kg/m3
6782.2 kPa	1008.2 kg/m3 and 1008.1 kg/m3 and 1008 kg/m3
6782.4 kPa	1007.9 kg/m3 and 1008.2 kg/m3 and 1008.1 kg/m3
6782.6 kPa	1008.1 kg/m3 and 1008 kg/m3
6782.7 kPa	1008.2 kg/m3 and 1008.1 kg/m3 and 1008 kg/m3
6782.9 kPa	1008.1 kg/m3 and 1008 kg/m3
6783.1 kPa	1007.9 kg/m3 and 1008.1 kg/m3 and 1008 kg/m3
6783.2 kPa	1008 kg/m3
6783.3 kPa	1008.1 kg/m3 and 1008 kg/m3
6783.4 kPa	1008.1 kg/m3 [middle of 4 runs]
6783.6 kPa	1008 kg/m3 and 1008.1 kg/m3 and 1008.2 kg/m3
6783.8 kPa	1008.1 kg/m3
6784.1 kPa	1008 kg/m3
6784.3 kPa	1008.1 kg/m3
6784.5 kPa	1008 kg/m3
6784.6 kPa	1008.1 kg/m3
6784.7 kPa	1008 kg/m3 and 1008.1 kg/m3
6784.8 kPa	1008.1 kg/m3
6785 kPa	1008.1 kg/m3 and 1008.2 kg/m3
6785.1 kPa	1008.1 kg/m3 and 1008 kg/m3
6785.2 kPa	1008.2 kg/m3 and 1008.1 kg/m3
6785.3 kPa	1008.1 kg/m3 and 1008 kg/m3
6785.5 kPa	1007.9 kg/m3
6785.7 kPa	1008 kg/m3 and 1008.2 kg/m3 and 1008.1 kg/m3
6785.8 kPa	1008.1 kg/m3 and 1008 kg/m3 and 1008.2 kg/m3
6786 kPa	1008.1 kg/m3 and 1008 kg/m3
6786.2 kPa	1008.1 kg/m3 and 1008.2 kg/m3
6786.3 kPa	1008.1 kg/m3
6786.4 kPa	1008.1 kg/m3
6786.5 kPa	1008 kg/m3 and 1008.2 kg/m3 and 1008.1 kg/m3
6786.7 kPa	1008 kg/m3 and 1008.1 kg/m3
6786.9 kPa	1008 kg/m3 and 1008.1 kg/m3
6787 kPa	1008 kg/m3
6787.2 kPa	1008.1 kg/m3 and 1008 kg/m3
6787.4 kPa	1008 kg/m3 and 1008.2 kg/m3 and 1008.1 kg/m3
6787.7 kPa	1008.1 kg/m3
6787.9 kPa	1008 kg/m3 and 1008.1 kg/m3
6788.1 kPa	1008.2 kg/m3 and 1008.1 kg/m3
6788.2 kPa	1008 kg/m3 and 1008.1 kg/m3
6788.4 kPa	1008.1 kg/m3
6789.1 kPa	1008.2 kg/m3
6789.2 kPa	1008 kg/m3
6789.4 kPa	1008 kg/m3
6789.5 kPa	1008 kg/m3 and 1008.2 kg/m3 and 1008.1 kg/m3
6789.6 kPa	1008.2 kg/m3 and 1008.1 kg/m3 and 1008 kg/m3
6789.7 kPa	1008.1 kg/m3 and 1008 kg/m3
6789.8 kPa	1008 kg/m3 and 1008.1 kg/m3 and 1008.2 kg/m3
6789.9 kPa	1008 kg/m3
6795.1 kPa	1008.1 kg/m3
6804.6 kPa	1008.1 kg/m3
6816.7 kPa	1008 kg/m3
6826.4 kPa	1008 kg/m3
6835.7 kPa	1008.2 kg/m3
6845.5 kPa	1008.1 kg/m3
6856.1 kPa	1008.3 kg/m3
6867.3 kPa	1008.1 kg/m3
6879.6 kPa	1008.1 kg/m3
6889.1 kPa	1008.1 kg/m3
6899.3 kPa	1008.1 kg/m3
6909.5 kPa	1008.1 kg/m3
6921.6 kPa	1008.2 kg/m3
6931.7 kPa	1008.2 kg/m3
6941.9 kPa	1008.1 kg/m3
6954.2 kPa	1008.3 kg/m3
6964.7 kPa	1008.2 kg/m3
6975.4 kPa	1008.1 kg/m3
6988.1 kPa	1008.1 kg/m3
6998.9 kPa	1008.2 kg/m3
7009.8 kPa	1008.1 kg/m3
7020.4 kPa	1008.2 kg/m3
7033.3 kPa	1008.2 kg/m3
7043.8 kPa	1008.3 kg/m3
7054.9 kPa	1008.2 kg/m3
7065.4 kPa	1008.3 kg/m3
7078.4 kPa	1008.2 kg/m3
7089.3 kPa	1008.3 kg/m3
7100.3 kPa	1008.3 kg/m3
7113.3 kPa	1008.3 kg/m3
